Source: patent publication US20160157484A1, “NATURAL ANTIMICROBIAL COMPOSITIONS” (Lincoln Manufacturing Inc., priority 2011, published 2016)

Test: Solubility and stability of 20% and 25% lauric acid in solvents and solvent mixtures

Glycereth 2-Cocoate
Solubility of 20% Lauric Acid (20% lauric acid in the named solvent): Not Soluble
Solubility of 25% Lauric Acid (25% lauric acid in the named solvent): Not Soluble
